Data taken from US20110312513A1, “BIOMARKERS FOR PREDICTING SUSTAINED RESPONSE TO HCV TREATMENT” (ROCHE MOLECULAR SYSTEMS, INC., priority 2009, published 2011).

What was measured:
[1] = Phase II clinical trial of RO4588161: premature withdrawal for safety reasons; format: in vivo, human; conditions: among the 104 evaluable patients
Source text: A screening period (time from the first screening assessment to the first administration of test drug) of 35 days preceded the treatment portion of the trial (FIG. 1). The HCV genotype and HCV RNA titer of each patient was confirmed during the screening period and only treatment-naïve patients with HCV genotype-1 and HCV RNA titer ≧50,000 IU/mL were eligible for enrollment.
One hundred and seven male and female patients between 18 and 66 years of age were enrolled into the study.

HCV = conditions: monotherapy; cited from earlier work

| Compound | patients who prematurely withdrew for safety reasons from treatment [1] | effect on serum levels of HCV-RNA (HCV) | patients with serum amino transferase levels reduced to normal (HCV) |
| --- | --- | --- | --- |
| CC(C)C(=O)OC[C@@]1(N=[N+]=[N-])O[C@@H](n2ccc(N)nc2=O)[C@H](OC(=O)C(C)C)[C@@H]1OC(=O)C(C)C [RO4588161, Isobutyric acid (2R,3S,4R,5R)-5-(4-amino-2-oxo-2H-pyrimidin-1-yl)-2-azido-3,4-bis-isobutyryloxy-tetrahydro-furan-2-ylmethyl ester] | 43 patients | – | – |
| NC(=O)c1ncn([C@@H]2O[C@H](CO)[C@@H](O)[C@H]2O)n1 [ribavirin, 1-((2R,3R,4S,5R)-3,4-Dihydroxy-5-hydroxymethyl-tetrahydro-furan-2-yl)-1H-[1,2,4]triazole-3-carboxylic acid amide] | 5 patients | does not lower serum levels of HCV-RNA | 40% |
